Data on 1 sequence can be found in patent US20040229268A1, “Method and kit for identifying antibiotic-resistant microorganisms” (priority 2003, published 2004).

Data set [1] relates to rRNA/rDNA (pan-bacterial probe); mecA target sequence. The experiment in a line: HPA after base treatment of specimen or synthetic target (Example 3). The class given is binding, S. aureus. Here is the method:
The effect of base treatment on a S. aureus specimen (#102) was evaluated using the pan-bacterial probe reagent. A pelleted sample of the specimen was suspended in 120 μl of lysis buffer and lysed by treatment for 20 minutes in a heat block set at 110° C. A 50 μl aliquot of the lysed specimen was treated with 50 μl of a 0.4 N LiOH solution at 55° C. for 10 minutes, and then neutralized with the addition of 50 μl of 0.4 N HCl and buffered with 50 μl of a 1× hybridization buffer (0.6 M LiCl, 1% lithium lauryl sulfate, 10 mM EDTA, 10 mM EGTA, 50 mM lithium succinate, pH 5.5). The treated sample was hybridized with the AE-labeled pan-bacterial probe by incubating at 55° C. for 1 hour. An HPA assay to detect specific probe hybrids was carried out using standard procedures that will be familiar to those having an ordinary level of skill in the art. A control sample consisted of 50 μl of the lysed specimen and volumes of hydrolysis, neutralization and buffered solutions equivalent to those of the treated sample.
For example, the effect of base treatment with 0.8 N LiOH for 10 minutes at 55° C. was assessed using AE-probe 1. For these treatments, an equal volume of 0.8 N LiOH was added to the sample, and the reaction mixtures were neutralized with the addition of an equivalent volume of 0.8 N HCl prior to buffering and assaying by HPA. 300 μl aliquots of each reaction mixture were read in the luminometer. These procedures employed a single-stranded DNA oligonucleotide having the same sequence that was present in the target bacteria, and that was fully complementary to the hybridization probe undergoing testing, as synthetic target.

Data set [2] deals with mecA gene; ribosomal nucleic acids. Kind of data set: HPA, base treatment with and without thermal lysis (Example 4). The class given is binding, S. aureus. Here is the method: The effect of base treatment with and without the heat treatment in lysis buffer was evaluated using a S. aureus specimen (GP1217, ATCC #33591). In this procedure the sample was treated with 0.8 N LiOH and thermal lysis was conducted by heat treatment for 15 minutes. Other conditions were as described above. Probe 1 labeled with acridinium ester was used in this procedure.

For the sequence “GGTATGTGGAAGTTAGATTGGGATCATAGCG (AE label, linker between 13 and 14, chemistry not fully specified; listed as Staphylococcus aureus) [Probe 1]”, the “AE-probe 1 Signal (RLU)” value in data set [1] (#148, Control (no base treatment)) amounted to 34677 RLU; in data set [1] (#148, base treated (0.8 N LiOH, 10 minutes, 55° C.)) it was 42627 RLU; in data set [1] (Synthetic target + #148, Control) it was 53367 RLU; in data set [1] (Synthetic target + #148, base treated) it was 58565 RLU; in data set [1] (Synthetic target, Control (no base treatment)) it was 22195 RLU; in data set [1] (Synthetic target, base treated (0.8 N LiOH, 10 minutes, 55° C.)), 21283 RLU. Besides, the RLU in data set [2] (GP1217, Base treatment 30 minutes at 60° C.) worked out at 16016 RLU; in data set [2] (GP1217, Thermal lysis 15 minutes at 100° C. + Base treatment 15 minutes at 60° C.) it was 38017 RLU; in data set [2] (Table 5, Negative Control), 592 RLU.
